{
  "source": "patent US8431527B2",
  "about": "“Methods for alleviating deleterious effects of 3-deoxyglucosone” (Fox Chase Cancer Center, priority 1997, dated 2013)",
  "key": {"lysine recovery pathway": {"tested_on": "lysine recovery pathway", "assay": "Urinary FL, 3DG and 3DF in humans following ingestion of glycated protein", "format": "in vivo", "settings": "seven volunteers, 2 g dose of fructoselysine as glycated protein food", "protocol": "c. Experimental protocol: Volunteers spent two days on a fructoselysine-free diet and then consumed 22.5 g of the food product prepared as described herein, thus effectively receiving a 2 g. dose of fructoselysine. Urine was collected at 2 hour intervals for 14 hours and a final collection was made at 24 hours. d. Measurement of FL, 3DG and 3DF in urine: FL was measured by HPLC with a Waters 996 diode Array using a Waters C18 Free Amino Acid column at 46° and a gradient elution system of acetonitrile-methyl alcohol-water (45:15:40) into acetonitrile-sodium acetate-water (6:2:92) at 1 ml./min. Quantitation employed an internal standard of meglumine. 3DF was measured by HPLC after deionization of the sample. Analyses were performed on a Dionex DX-500 HPLC system employing a PA1 column (Dionex) and eluting with 32 mM sodium hydroxide at 1 ml./min. Quantitation was performed from standard curves obtained daily with synthetic 3DF. 3DG was measured by GC-MS after deionization of the sample. 3DG was derivatized with a 10-fold excess of diaminonaphthalene in PBS. Ethyl acetate extraction gave a salt free fraction which was converted to the trimethyl silyl ethers with Tri-Sil (Pierce). Analysis was performed on a Hewlett-Packard 5890 selected ion monitoring GC-MS system. […] Quantitation of 3DG employed selected ion monitoring using an internal standard of U-13C-3DG."}, "FL3P": {"tested_on": "FL3P", "assay": "Kidney FL3P after injection of synthetic fructose-lysine", "format": "in vivo", "settings": "non-diabetic rats", "protocol": "This identification was confirmed in two ways. Authentic fructose-lysine-3-phosphate (FL3P) was synthesized by the procedure disclosed in Example 2, below, and shown to co-resonate in the ^31P NMR spectrum with the peak in diabetic rat kidneys. Synthetic fructose-lysine was also injected into non-diabetic rats."}, "kidney proteins": {"tested_on": "kidney proteins", "set-up": "species or system rats", "settings": "rat, in vivo", "protocol": "Two rats were injected daily with 5 μmols. of either FL or mannitol (used as a control) for 5 days. The animals were sacrificed and the kidneys removed and dissected into the cortex and medulla. Tissues were homogenized in 5 volumes of 50 mM Tris.HCl containing 150 mM KCl, 15 mM MgCl2 and 5 mM DTT, pH 7.5. Cellular debris was removed by centrifugation at 10,000 g for 15 minutes, and the supernate was then centrifuged at 150,000 g for 70 minutes. The soluble proteins were analyzed by SDS PAGE on 12% polyacrylamide gels as well as on 4-15 and 10-20% gradient gels."}, "3DG": {"tested_on": "3DG", "assay": "3-O-methyl sorbitollysine lowers plasma 3DG in diabetic and non-diabetic rats", "format": "in vivo", "settings": "Day 8", "protocol": "A cohort of twelve diabetic rats was divided into two groups of six. The first group received saline-only injections, and the second received injections of 3-O-methyl sorbitollysine in saline solution. The same procedure was conducted on a cohort of twelve non-diabetic rats."}, "[1]": {"assay": "Locus of 3-O-methyl sorbitollysine uptake in vivo (tissue, urine, plasma recovery)", "set-up": "species or system rats", "protocol": "Six rats were injected intraperitoneally with […] (4.4 mg) of 3-O-methyl sorbitollysine. The rats' urine was collected for 3 hours, after which the rats were sacrificed. The tissues to be analyzed were removed and freeze clamped in liquid nitrogen. Perchloric acid extracts of the tissues were used for metabolite analysis. The tissues examined were taken from the brain, heart, muscle, sciatic nerve, spleen, pancreas, liver and kidney. Plasma and urine were also analyzed."}, "3-deoxyglucosone": {"tested_on": "3-deoxyglucosone", "assay": "Reduction of urinary and plasma 3-deoxyglucosone after intraperitoneal injection", "format": "in vivo", "settings": "rats, 10 μmols intraperitoneal", "protocol": "Urine was collected from six rats for three hours. A plasma sample was also obtained. The animals were then given 10 μmols of either sorbitollysine, mannitollysine, or galactitollysine by intraperitoneal injection. Urine was collected for another three hours, and a plasma sample obtained at the end of the three hours.\n3-deoxyglucosone was measured in these samples, as described in Example 5, below, and variable volumes were normalized to creatinine. The average reduction of urinary 3-deoxyglucosone was 50% by sorbitollysine, 35% by mannitollysine and 35% by galactitollysine. Plasma 3-deoxyglucosone was reduced 40% by sorbitollysine, 58% by mannitolysine and 50% by galactitollysine.\nc. Use of meglumine to reduce urinary 3-deoxyglucosone. Three rats were treated as in b), immediately above, except meglumine (100 μmols) was injected intraperitoneally instead of the above-mentioned lysine derivatives. Three hours after the injection the average 3-deoxyglucosone concentrations in the urine were decreased 42%.\n3DG was measured by GC-MS after deionization of the sample. 3DG was derivatized with a 10-fold excess of diaminonaphthalene in PBS. Ethyl acetate extraction gave a salt free fraction which was converted to the trimethyl silyl ethers with Tri-Sil (Pierce). […] Quantitation of 3DG employed selected ion monitoring using an internal standard of U-13C-3DG."}, "[2]": {"assay": "Stability of FL3P in aqueous solution", "format": "physicochemical", "settings": "degrades to 3DG, lysine and inorganic phosphate", "from_the_text": "FL3P is not stable in aqueous solution. It rapidly degrades to form 3DG, lysine and inorganic phosphate. This reaction also occurs in vivo. It is not currently know if the degradation of FL3P in vivo is a spontaneous or enzyme catalyzed reaction. It is strongly suspected, however, that enzymatic catalysis is involved, as the production of 3DG from fructose lysine occurs very rapidly in intact kidney."}, "[3]": {"settings": "3 hours after intraperitoneal injection"}},
  "data": [
    {"compound": "NC(CCCCNCC(=O)C(O)C(O)C(O)CO)C(=O)O", "note": "(centres unmarked) [FL, 1-deoxy-1-(ε-aminolysine)-fructose]", "values": [
      {"measurement": "time of peak urinary 3DF excretion after the FL bolus", "setting": "lysine recovery pathway", "result": "about 4 hours"},
      {"measurement": "levels of FL3P in kidneys following injection", "setting": "FL3P", "result": "substantial increase"},
      {"measurement": "SDS PAGE of soluble kidney proteins vs mannitol-injected animal", "setting": "kidney proteins", "result": "lower molecular weight bands were missing or visually reduced"}
    ]},
    {"compound": "COC(C(O)CNCCCCC(N)C(=O)O)C(O)C(O)CO", "note": "(centres unmarked) [3-O-methyl Sorbitollysine, 3-O-methyl sorbitollysine]", "values": [
      {"measurement": "percent reduction of plasma 3DG vs saline control", "setting": "3DG; diabetic rats", "result": 53, "unit": "%"},
      {"measurement": "percent reduction of plasma 3DG vs saline control", "setting": "3DG; non-diabetic rats", "result": 43, "unit": "%"},
      {"measurement": "compound present in plasma", "setting": "[1]; [3]", "result": "plasma did not"},
      {"measurement": "tissue extracts containing compound (brain, heart, muscle, sciatic nerve, spleen, pancreas, liver, kidney)", "setting": "[1]; [3]", "result": "only tissue extract found to contain 3-O-methyl sorbitollysine was that of the kidney"},
      {"measurement": "compound present in urine", "setting": "[1]; urine collected for 3 hours", "result": "urine also contained 3-O-methyl sorbitollysine"}
    ]},
    {"compound": "galactitol lysine [galactitollysine]", "values": [
      {"measurement": "plasma 3-deoxyglucosone reduced", "setting": "3-deoxyglucosone; plasma at end of three hours", "result": 50, "unit": "%"},
      {"measurement": "average reduction of urinary 3-deoxyglucosone", "setting": "3-deoxyglucosone; urine collected three hours after vs before, normalized to creatinine", "result": 35, "unit": "%"}
    ]},
    {"compound": "NC(CCCCNCC(=O)C(OP(=O)(O)O)C(O)C(O)CO)C(=O)O", "note": "(centres unmarked) [FL3P, fructose-lysine-3-phosphate]", "values": [
      {"measurement": "stability in aqueous solution", "setting": "[2]", "result": "not stable"}
    ]}
  ]
}
